Laboratory results as given in patent US6933396B2, “Process to prepare psorospermin” (Cylene Pharmaceuticals, priority 2002, dated 2005).

How the values were obtained:
various tumor cell lines = assay: MTS cytotoxicity / cell viability assays with various tumor cell lines; assay type: cell-based
Text: FIG. 1 illustrates a comparison of (R,R)-psorospermin with (R,R)-5-methoxy-psorospermin, (R,S)-5-methoxy-psorospermin, (S,R)-5-methoxy-psorospermin and (S,S)-5-methoxy-psorospermin in cell viability assays with various tumor cell lines.
MTS cytotoxicity data was collected for a comparison of (R,R)-psorospermin with (R,R)-5-methoxy-psorospermin, (R,S)-5-methoxy-psorospermin, (S,R)-5-methoxy-psorospermin and (S,S)-5-methoxy-psorospermin in cell viability assays with various tumor cell lines, the results of which are shown in FIG. 1.

[1] = Blood plasma levels (pharmacokinetics) after i.v. injection in rats; assay type: in vivo, Sprague Dawley rats; details: for blood plasma levels of parent compound: over 24 h
Protocol: Blood plasma levels of psorospermin over 24 h after a 5 mg/Kg injection i.v. in Sprague Dawley rats were measured. Blood plasma levels of 5-methoxy-psorospermin over 24 h after a 5 mg/Kg injection i.v. in Sprague Dawley rats were measured.

[2] = 5 mg/Kg injection i.v., Sprague Dawley rats

Row | SMILES | activity relative to stereoisomeric counterparts (various tumor cell lines; compared with (2R′, 3S′) or (2S′, 3S′) counterparts) | antitumor activity in a variety of cell lines (various tumor cell lines; variety of cell lines including those of solid tumors and lymphomas, compared with natural product psorospermin) | time for which a therapeutic dose is exhibited in rodents ([1]; 5 mg/Kg injection i.v., Sprague Dawley rats, FIG. 3) | blood plasma levels of parent compound [1, 2] | systemic presence ([1]; in comparison with 2′R,3′R psorospermin) | blood plasma levels of parent compound ([1]; 5 mg/Kg injection i.v., Sprague Dawley rats, listed as natural product)
1 | COc1cccc2c(=O)c3c(OC)cc4c(c3oc12)C[C@H]([C@@]1(C)CO1)O4 [(R,R)-5-Methoxypsorospermin, (2′R,3′R) 5-Methoxy Psorospermin] | more active than their (2R′, 3S′) or (2S′, 3S′) counterparts | comparable antitumor activity to that of the natural product psorospermin | exceeds two hours | prolonged measurable quantities of the parent with a good half life | prolonged systemic presence in comparison with 2′R,3′R psorospermin | –
2 | COc1cc2c(c3oc4c(O)cccc4c(=O)c13)C[C@H]([C@@]1(C)CO1)O2 [psorospermin, (2′R,3′R) Psorospermin] | – | – | – | Little parent compound can be detected within the first 24 h after dosing | – | could be barely detected at any time point
